According to patent publication US20070043024A1, “Azacyclic compounds as inhibitors of sensory neurone specific channels” (priority 2003, published 2007):
“And” between values parts separate entries of the source, which are not always exact repeats. Equal values may be shown once.

molecular target: T1, human Nav1.8 (hNav1.8) ion channel (Homo sapiens, UniProt Q9Y5Y9); test: Inhibition of human Nav1.8 stably expressed in SH-SY-5Y cells (membrane potential dye fluorescence assay); format: cell-based; conditions: not given
T1 construct: expressed in transfected cells
Description: Inhibition of Human Nav1.8 Stably Expressed in SH-SY-5Y Cells
A SH-SY-5Y neuroblastoma cell line stably expressing the human […] (hNav1.8) ion channel was constructed. This cell line has been used to develop a medium to high throughput assay for determining the ability of test compounds to inhibit membrane depolarisation mediated via the hNav1.8 channel.
SH-SY-5Y hNav1.8 are grown in adherent monolayer culture using 50:50 Ham's F-12/EMEM tissue culture medium supplemented with 15% (v/v) foetal bovine serum; 2 mM L-glutamine, 1% NEAA and 600 μg·ml^−1 Geneticin sulphate. Cells are removed from the tissue culture flask using trypsin/EDTA and re-plated into black walled, clear bottom 96-well assay plates at 50,000 cells·well^−1 24 hours prior to assay.
On the day of assay the cell assay plates are washed to remove cell culture medium using a sodium free assay buffer (145 mM tetramethyl ammonium chloride; 2 mM calcium chloride; 0.8 mM magnesium chloride hexahydrate; 10 mM HEPES; 10 mM glucose; 5 mM potassium chloride, pH 7.4). Fluorescent membrane potential dye solution (FLIPR™ membrane potential dye, Molecular Devices Corporation), containing 10 μM of a pyrethroid to prevent channel inactivation and 250 nM tetrodotoxin (TTX) to reduce interference from TTX-sensitive sodium channels present in the cell line. Test compound, initially dissolved in dimethyl sulfoxide but further diluted in sodium free buffer, is added to achieve the final test concentration range of 100 μM-0.05 μM.
Cell plates are incubated for 30 minutes at room temperature to allow equilibration of dye and test compound. Plates are then transferred to a fluorescence plate reader for fluorescence measurement using an excitation wavelength of 530 nm whilst measuring fluorescence emission at 565 nm. Baseline fluorescence levels are first determined before the addition of a sodium containing buffer (220 mM sodium chloride; 2 mM calcium chloride; 0.8 mM magnesium chloride hexahydrate; […]; 10 mM glucose; 5 mM potassium chloride. pH 7.4) to cause membrane depolarisation in those cells where channel block has not been effected (final sodium concentration=72.5 mM). Membrane depolarisation is registered by an increase in fluorescence emission at 565 nm.
The change in fluorescence seen in each test well upon the addition of sodium containing buffer is calculated relative to the baseline fluorescence for that well. This figure is then used for calculating the IC50 for each test compound.

T1 sequence (Q9Y5Y9 whole entry): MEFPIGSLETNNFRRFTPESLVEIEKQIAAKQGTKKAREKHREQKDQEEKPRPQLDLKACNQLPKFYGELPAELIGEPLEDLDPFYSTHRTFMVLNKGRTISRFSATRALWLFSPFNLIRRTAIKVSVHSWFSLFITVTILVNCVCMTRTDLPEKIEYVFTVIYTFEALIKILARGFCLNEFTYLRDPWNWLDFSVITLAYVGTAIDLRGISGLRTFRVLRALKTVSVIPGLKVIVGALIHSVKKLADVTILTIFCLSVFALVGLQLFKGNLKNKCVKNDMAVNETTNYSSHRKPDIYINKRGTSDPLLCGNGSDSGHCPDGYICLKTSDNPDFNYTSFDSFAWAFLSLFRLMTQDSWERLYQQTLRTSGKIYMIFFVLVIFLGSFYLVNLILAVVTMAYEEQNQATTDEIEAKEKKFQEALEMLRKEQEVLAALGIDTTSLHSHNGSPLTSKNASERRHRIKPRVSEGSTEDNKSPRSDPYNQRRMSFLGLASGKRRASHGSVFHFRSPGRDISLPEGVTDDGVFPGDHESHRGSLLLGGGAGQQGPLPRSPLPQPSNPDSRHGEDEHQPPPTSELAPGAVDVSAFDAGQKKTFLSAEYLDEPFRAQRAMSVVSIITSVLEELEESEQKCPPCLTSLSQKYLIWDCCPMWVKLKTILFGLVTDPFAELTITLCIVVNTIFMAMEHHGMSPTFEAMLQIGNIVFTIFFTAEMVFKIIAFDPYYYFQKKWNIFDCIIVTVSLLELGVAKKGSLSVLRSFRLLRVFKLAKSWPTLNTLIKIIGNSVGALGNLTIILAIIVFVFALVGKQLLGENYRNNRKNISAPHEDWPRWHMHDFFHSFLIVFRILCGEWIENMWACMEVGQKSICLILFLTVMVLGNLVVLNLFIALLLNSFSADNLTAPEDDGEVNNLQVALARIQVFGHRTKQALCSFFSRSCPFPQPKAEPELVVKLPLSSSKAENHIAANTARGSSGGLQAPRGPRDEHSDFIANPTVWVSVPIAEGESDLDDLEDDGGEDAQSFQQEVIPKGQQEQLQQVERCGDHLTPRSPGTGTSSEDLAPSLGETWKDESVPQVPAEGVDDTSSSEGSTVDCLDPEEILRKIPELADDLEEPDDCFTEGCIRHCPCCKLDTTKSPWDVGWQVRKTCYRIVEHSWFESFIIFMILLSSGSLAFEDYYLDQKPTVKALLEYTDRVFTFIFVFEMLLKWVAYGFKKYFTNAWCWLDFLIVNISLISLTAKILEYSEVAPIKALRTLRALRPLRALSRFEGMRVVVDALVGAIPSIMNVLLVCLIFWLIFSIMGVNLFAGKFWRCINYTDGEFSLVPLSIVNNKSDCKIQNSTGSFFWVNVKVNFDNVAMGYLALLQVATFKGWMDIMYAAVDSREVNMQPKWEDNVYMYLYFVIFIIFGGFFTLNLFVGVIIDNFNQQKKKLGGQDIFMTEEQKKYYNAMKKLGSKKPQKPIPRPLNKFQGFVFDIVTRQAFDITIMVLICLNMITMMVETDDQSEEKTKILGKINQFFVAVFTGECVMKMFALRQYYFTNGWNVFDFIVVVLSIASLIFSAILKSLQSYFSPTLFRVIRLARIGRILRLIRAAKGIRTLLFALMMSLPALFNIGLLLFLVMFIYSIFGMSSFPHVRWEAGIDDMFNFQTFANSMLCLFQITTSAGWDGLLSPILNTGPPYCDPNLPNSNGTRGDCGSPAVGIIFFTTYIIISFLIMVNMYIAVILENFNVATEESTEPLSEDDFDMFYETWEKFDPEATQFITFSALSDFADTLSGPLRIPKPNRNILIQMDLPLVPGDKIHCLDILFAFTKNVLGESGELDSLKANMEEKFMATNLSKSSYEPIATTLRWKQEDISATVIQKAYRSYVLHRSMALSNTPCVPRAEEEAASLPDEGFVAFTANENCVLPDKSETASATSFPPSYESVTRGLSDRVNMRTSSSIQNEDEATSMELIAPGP

First: COc1cccc2c1CN(CC(=O)NCCSC(c1ccccc1)c1ccccc1)CC2 [Compound 96, N-(2-Benzhydrylsulfanyl-ethyl)-2-(8-methoxy-3,4-dihydro-1H-isoquinolin-2-yl)-acetamide]
Second: COc1cccc2c1CN(CC(=O)NCC[S+]([O-])C(c1ccccc1)c1ccccc1)CC2 (stereo not drawn) [Compound 103, N-[2-(Diphenyl-methanesulfinyl)-ethyl]-2-(8-methoxy-3,4-dihydro-1H-isoquinolin-2-yl)-acetamide]
The IC50 of the first is 2-fold lower: 1110 nM for the first, 2250 nM for the second.

same assay, conditions: Table 1; SH-SY-5Y hNav1.8 cells, inhibition of membrane depolarisation, FLIPR membrane potential dye, 250 nM TTX, test concentration range 100 μM-0.05 μM; read-out: IC50

With “3,4-Dihydro-1H-isoquinoline-2-carbothioic acid benzhydryl-amide [Example 53]” the IC50 was 4060 nM.

same assay, conditions: Table 2 (compound numbers of the list in the description); SH-SY-5Y hNav1.8 cells, inhibition of membrane depolarisation, FLIPR membrane potential dye, 250 nM TTX, test concentration range 100 μM-0.05 μM; read-out: IC50

Compared with COc1cccc2c1CN(CC(=O)N1c3ccccc3OCC1c1ccccc1)CC2 (stereo not drawn) [Compound 71, 2-(8-methoxy-3,4-dihydro-1H-isoquinolin-2-yl)-1-(3-phenyl-2,3-dihydro-benzo[1,4]oxazin-4-yl)-ethanone], COc1cccc2c1CN(CC(=O)N1c3ccccc3CCc3ccccc31)CC2 [Compound 73, 1-(10,11-dihydro-dibenzo[b,f]azepin-5-yl)-2-(8-methoxy-3,4-dihydro-1H-isoquinolin-2-yl)-ethanone] is 1.7-fold lower in IC50: 2180 nM for the first, 1280 nM for the second.

Going from COc1cccc2c1CN(CCCOC=C(c1ccccc1)c1ccccc1)CC2 [Compound 74, 2-[3-(2,2-diphenyl-vinyloxy)-propyl]-8-methoxy-1,2,3,4-tetrahydro-isoquinoline] to COc1cccc2c1CN(CCC(=O)N(Cc1ccccc1)Cc1ccccc1)CC2 [Compound 87, N,N-dibenzyl-3-(8-methoxy-3,4-dihydro-1H-isoquinolin-2-yl)-propionamide], the IC50 falls from 1800 nM to 490 nM (3.7-fold). The second is the more potent here.

Compared with COc1ccc2c(c1)CCCN(C(=S)NC(c1ccccc1)c1ccccc1)C2 [Compound 76, 7-methoxy-1,3,4,5-tetrahydro-benzo[c]azepine-2-carbothioic acid benzhydryl-amide], COc1ccc2c(c1)CCCN(CC(=O)NC(c1ccccc1)c1ccccc1)C2 [Compound 83, N-benzhydryl-2-(7-methoxy-1,3,4,5-tetrahydro-benzo[c]azepin-2-yl)-acetamide] is 18-fold lower in IC50: 14800 nM for the first, 830 nM for the second.

Compared with COc1cccc2c1CN(CC(=O)N(C(C)C)C(C)C)CC2 [Compound 78, N,N-diisopropyl-2-(8-methoxy-3,4-dihydro-1H-isoquinolin-2-yl)-acetamide], COc1cccc2c1CN(CC(=O)NC(C)c1ccccc1)CC2 (stereo not drawn) [Compound 105, 2-(8-Methoxy-3,4-dihydro-1H-isoquinolin-2-yl)-N-(1-phenyl-ethyl)-acetamide] is 1.8-fold lower in IC50: 28500 nM for the first, 15900 nM for the second.

First: COc1cccc2c1CN(CC(=O)N(Cc1ccccc1)Cc1ccccc1)CC2 [Compound 79, N,N-dibenzyl-2-(8-methoxy-3,4-dihydro-1H-isoquinolin-2-yl)-acetamide]
Second: CCOc1cccc2c1CN(CC(=O)N(Cc1ccccc1)Cc1ccccc1)CC2 [Compound 91, N,N-Dibenzyl-2-(8-ethoxy-3,4-dihydro-1H-isoquinolin-2-yl)-acetamide]
The IC50 of the first is 6.8-fold lower: 1020 nM for the first, 6980 nM for the second.

Compared with COc1cccc2c1CN(CC(=O)NCCCC(c1ccccc1)c1ccccc1)CC2 [Compound 81, N-(4,4-diphenyl-butyl)-2-(8-methoxy-3,4-dihydro-1H-isoquinolin-2-yl)-acetamide], CCOc1cccc2c1CN(CC(=O)NCCCC(c1ccccc1)c1ccccc1)CC2 [Compound 92, N-(4,4-Diphenyl-butyl)-2-(8-ethoxy-3,4-dihydro-1H-isoquinolin-2-yl)-acetamide] is 3.4-fold higher in IC50: 1400 nM for the first, 4820 nM for the second.

Going from COc1cccc2c1CN(CC(=O)NCCCC(c1ccccc1)c1ccccc1)C2 [Compound 82, N-(4,4-diphenyl-butyl)-2-(4-methoxy-1,3-dihydro-isoindol-2-yl)-acetamide] to COc1cccc2c1CN(CC(=O)NCCC(c1ccccc1)c1ccccc1)C2 [Compound 88, N-(3,3-diphenyl-propyl)-2-(4-methoxy-1,3-dihydro-isoindol-2-yl)-acetamide], the IC50 rises from 1060 nM to 2090 nM (2-fold).

Compared with COc1ccc2c(c1)CCCN(CC(=O)NCC(c1ccccc1)c1ccccc1)C2 [Compound 84, N-(2,2-diphenyl-ethyl)-2-(7-methoxy-1,3,4,5-tetrahydro-benzo[c]azepin-2-yl)-acetamide], COc1ccc2c(c1)CCCN(CC(=O)NCCC(c1ccccc1)c1ccccc1)C2 [Compound 85, N-(3,3-diphenyl-propyl)-2-(7-methoxy-1,3,4,5-tetrahydro-benzo[c]azepin-2-yl)-acetamide] is 2.7-fold higher in IC50: 400 nM for the first, 1080 nM for the second. The first is the more potent here.

First: COc1ccc2c(c1)CCCN(CC(=O)N(Cc1ccccc1)Cc1ccccc1)C2 [Compound 86, N,N-dibenzyl-2-(7-methoxy-1,3,4,5-tetrahydro-benzo[c]azepin-2-yl)-acetamide]
Second: Nc1cccc2c1CN(CC(=O)N(Cc1ccccc1)Cc1ccccc1)C2 [Compound 101, 2-(4-Amino-1,3-dihydro-isoindol-2-yl)-N,N-dibenzyl-acetamide]
The IC50 of the first is 8.7-fold lower: 490 nM for the first, 4260 nM for the second.

First: COc1cccc2c1CN(CC(=O)NCCCOC(c1ccccc1)c1ccccc1)CC2 [Compound 94, N-(3-Benzhydryloxy-propyl)-2-(8-methoxy-3,4-dihydro-1H-isoquinolin-2-yl)-acetamide]
Second: Nc1cccc2c1CN(CC(=O)NCCCC(c1ccccc1)c1ccccc1)CC2 [Compound 109, 2-(8-Amino-3,4-dihydro-1H-isoquinolin-2-yl)-N-(4,4-diphenyl-butyl)-acetamide]
The IC50 of the first is 1.6-fold higher: 2840 nM for the first, 1800 nM for the second.

Compared with C=CCOc1cccc2c1CN(CC(=O)NCCC(c1ccccc1)c1ccccc1)CC2 [Compound 97, 2-(8-Allyloxy-3,4-dihydro-1H-isoquinolin-2-yl)-N-(3,3-diphenyl-propyl)-acetamide], CC(=O)Nc1cccc2c1CN(CC(=O)NCCCC(c1ccccc1)c1ccccc1)CC2 [Compound 112, 2-(8-Acetylamino-3,4-dihydro-1H-isoquinolin-2-yl)-N-(4,4-diphenyl-butyl)-acetamide] is 2.9-fold lower in IC50: 2270 nM for the first, 790 nM for the second.

Going from Nc1cccc2c1CN(CC(=O)NCC(c1ccccc1)c1ccccc1)C2 [Compound 98, 2-(4-Amino-1,3-dihydro-isoindol-2-yl)-N-(2,2-diphenyl-ethyl)-acetamide] to Nc1cccc2c1CN(CC(=O)NCCC(c1ccccc1)c1ccccc1)C2 [Compound 99, 2-(4-Amino-1,3-dihydro-isoindol-2-yl)-N-(3,3-diphenyl-propyl)-acetamide], the IC50 falls from 6760 nM to 2430 nM (2.8-fold).

Going from Nc1cccc2c1CN(CC(=O)NCCCC(c1ccccc1)c1ccccc1)C2 [Compound 100, 2-(4-Amino-1,3-dihydro-isoindol-2-yl)-N-(4,4-diphenyl-butyl)-acetamide] to Nc1cccc2c1CN(CC(=O)NCC(c1ccccc1)c1ccccc1)CC2 [Compound 111, 2-(8-Amino-3,4-dihydro-1H-isoquinolin-2-yl)-N-(2,2-diphenyl-ethyl)-acetamide], the IC50 rises from 970 nM to 3880 nM (4-fold).

Compared with Nc1cccc2c1CN(CCCC(c1ccc(F)cc1)c1ccc(F)cc1)C2 [Compound 102, 2-[4,4-Bis-(4-fluoro-phenyl)-butyl]-2,3-dihydro-1H-isoindol-4ylamine], Nc1cccc2c1CN(CCCC(c1ccc(F)cc1)c1ccc(F)cc1)CC2 [Compound 110, 2-[4,4-Bis-(4-fluoro-phenyl)-butyl]-1,2,3,4-tetrahydro-isoquinolin-8-ylamine] is 1.8-fold lower in IC50: 860 nM for the first, 480 nM for the second.

Going from O=C(CNC(c1ccccc1)c1ccccc1)N1Cc2ccccc2C1 [Compound 107, 2-(Benzhydryl-amino)-1-(1,3-dihydro-isoindol-2-yl)-ethanone] to Nc1cccc2c1CN(CC(=O)NC(c1ccccc1)c1ccccc1)CC2 [Compound 108, 2-(8-Amino-3,4-dihydro-1H-isoquinolin-2-yl)-N-benzhydryl-acetamide], the IC50 rises from 2260 nM to 3480 nM (1.5-fold). The first is the more potent here.

Going from COc1ccc(C(CCNC(=O)CN2CCc3ccccc3C2)c2ccc(OC)cc2)cc1 [Compound 114, N-[3,3-Bis-(4-methoxy-phenyl)-propyl]-2-(3,4-dihydro-1H-isoquinolin-2-yl)-acetamide] to COc1ccc(C(CCNC(=O)CN2CCc3cccc(OC)c3C2)c2ccc(OC)cc2)cc1 [Compound 115, N-[3,3-Bis-(4-methoxy-phenyl)-propyl]-2-(8-methoxy-3,4-dihydro-1H-isoquinolin-2-yl)-acetamide], the IC50 falls from 10600 nM to 2350 nM (4.5-fold). The second is the more potent here.

In the case of COc1cccc2c1CN(CC(=O)N1c3ccccc3Oc3ccccc31)CC2 [Compound 72, 2-(8-methoxy-3,4-dihydro-1H-isoquinolin-2-yl)-1-phenoxazin-10-yl-ethanone], the IC50 is reported as 490 nM and 1290 nM.
